According to PubChem BioAssay AID1645866 (Buhrlage Lab, Dana-Farber Cancer Institute and Novartis …, 2021):
The source made the active and inactive calls.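 How the source made its calls: active means in confirmatory dose-response testing, peak deubiquitinase inhibition of 30% or more; inactive means the rest.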

Biological target: Ubiquitin carboxyl-terminal hydrolase 28 (Homo sapiens) (UniProt Q96RU2)
Experiment: Ubiquitin-specific peptidase 28 DUB inhibitors, biochemical concentration-dependence assay, validation of primary screening hits (AID 1645866)
Details: purified USP28, ubiquitin-rhodamine fluorescence, 30 min

Chain of Ubiquitin carboxyl-terminal hydrolase 28 (Homo sapiens) (Q96RU2 whole entry, looked up): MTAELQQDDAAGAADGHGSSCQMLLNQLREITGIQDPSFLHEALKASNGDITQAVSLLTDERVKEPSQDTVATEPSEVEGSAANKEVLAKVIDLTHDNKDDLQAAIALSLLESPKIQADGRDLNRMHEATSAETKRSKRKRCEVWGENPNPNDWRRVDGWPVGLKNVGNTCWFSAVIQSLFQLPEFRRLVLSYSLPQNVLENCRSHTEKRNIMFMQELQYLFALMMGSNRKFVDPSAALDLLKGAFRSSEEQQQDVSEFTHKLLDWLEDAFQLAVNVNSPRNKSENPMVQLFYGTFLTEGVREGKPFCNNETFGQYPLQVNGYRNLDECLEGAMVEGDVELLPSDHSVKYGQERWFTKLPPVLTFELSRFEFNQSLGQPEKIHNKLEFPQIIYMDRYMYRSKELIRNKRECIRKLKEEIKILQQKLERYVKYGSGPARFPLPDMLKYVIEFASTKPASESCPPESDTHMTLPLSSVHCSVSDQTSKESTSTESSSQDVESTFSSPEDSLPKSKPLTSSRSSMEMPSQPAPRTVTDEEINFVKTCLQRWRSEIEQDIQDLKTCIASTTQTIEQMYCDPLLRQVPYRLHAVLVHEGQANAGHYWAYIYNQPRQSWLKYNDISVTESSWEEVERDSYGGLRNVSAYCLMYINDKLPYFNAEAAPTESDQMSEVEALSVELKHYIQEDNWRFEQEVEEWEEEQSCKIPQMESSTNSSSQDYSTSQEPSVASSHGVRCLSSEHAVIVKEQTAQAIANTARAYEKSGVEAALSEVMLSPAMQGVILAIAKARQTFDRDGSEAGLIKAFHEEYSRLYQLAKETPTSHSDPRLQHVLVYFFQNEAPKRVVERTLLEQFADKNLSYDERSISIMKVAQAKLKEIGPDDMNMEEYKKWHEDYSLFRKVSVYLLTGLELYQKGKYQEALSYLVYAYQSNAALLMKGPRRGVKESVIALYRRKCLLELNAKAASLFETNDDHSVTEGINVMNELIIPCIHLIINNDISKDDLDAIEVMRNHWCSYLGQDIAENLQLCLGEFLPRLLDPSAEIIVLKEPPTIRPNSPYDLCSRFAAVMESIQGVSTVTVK

SMILES	IC50
COc1ccc(CNC(=O)C(C)n2nc(-c3ccco3)c(-c3cc(C)no3)cc2=O)cc1 (centres undefined)	26.4 µM
O=S(=O)(c1cccc2cccnc12)N(CCc1ccccc1)C1CCN(CCc2ccc(Cl)cc2)CC1	> 50 µM (inactive)
Nc1ccccc1SCc1noc(-c2cccs2)n1	6.61 µM
COc1ccc(CCNC(=O)[C@H](CCSC)NC(=O)N2CCn3c2nc2ccccc23)cc1OC	> 50 µM (inactive)
COc1ccc(C(=O)Nc2ccccc2C(=O)NCc2ccccc2)cc1	37.6 µM
COc1cccc2c1C(=O)c1ccc3c(c1C2=O)C(=O)CC(C)(O)C3 (centres undefined)	> 50 µM (inactive)
CCOc1ccc(S(=O)(=O)Nc2ccc[nH]c2=O)cc1	> 50 µM (inactive)
N#Cc1ccc(Cl)cc1NC(=O)COc1cccnc1[N+](=O)[O-]	49.8 µM
CCc1ccc(NC(=O)COc2cccc(-n3cnnn3)c2)cc1	25 µM
COc1cccc(CNC(=O)c2ccc(CSc3nc4ccncc4n3Cc3ccccc3F)cc2)c1	27.4 µM
COc1ccccc1NC(=O)CNC(=O)c1nn(-c2ccc(OC)c(OC)c2)c(=O)c2ccccc12	24.8 µM
Cc1ccc2cc(CNc3ccccc3)c(=O)n(CC(=O)Nc3ccccc3C)c2c1	18.6 µM
Cc1cc(C)cc(N(CCC(=O)Nc2ccc(N3CCOCC3)cc2)S(=O)(=O)c2ccc(Cl)cc2)c1	12.9 µM
CCn1c(SCC(=O)N2c3ccccc3CC2C)nnc1-c1ccc2c(c1)OCCO2 (centres undefined)	33.8 µM
Cn1c(=O)c(C(=O)CN2CCN(c3ccc(O)cc3)CC2)c(N)n(Cc2ccccc2)c1=O	49.4 µM
O=C(/C=C/c1ccc(F)cc1)N1CCc2ccccc2C1	35.1 µM
O=C(Cn1cnc2c(cnn2-c2ccc(Cl)cc2)c1=O)NCc1ccccc1Cl	9.05 µM
CC(=O)N1CCCC(c2nc(C)cc(-c3cc(F)ccc3C(=O)O)n2)C1 (centres undefined)	> 50 µM (inactive)
CS(=O)(=O)N1CCCc2cc(C(=O)Nc3ccc(Oc4ccccc4)cc3)ccc21	12.5 µM
O=[N+]([O-])c1ccc(N2CCN(c3ncnc4c3[nH]c3ccc(F)cc34)CC2)cc1	0.225 µM
O=C(O)C1CCN(Cc2c(-c3ccco3)nc3ccc(Cl)cn23)CC1	> 50 µM (inactive)
CCc1nc2c(NC(=O)Nc3cccc(C(=O)OC)c3)cccn2n1	2.91 µM
CCn1c(COc2cccc(C(F)(F)F)c2)nnc1SCc1ccc(Cl)cc1	9.88 µM
Cc1cc(C)c2sc(N(CCCn3ccnc3)C(=O)Cc3ccccc3)nc2c1	17.2 µM
COc1cc(C)c2c(=O)c3c(oc2c1)C(=O)c1c(O)c(OC)cc(O)c1C3=O	1.56 µM

SMILES	IC50
COc1ccccc1NS(=O)(=O)c1ccc2oc(SCC(=O)c3ccccc3)nc2c1	> 50 µM (inactive)
Cc1noc(-c2cc(=O)n(CC(=O)NCc3ccccc3F)c3ccccc23)n1	9.89 µM
COc1cccc(NC(=O)C2CCC(CNS(=O)(=O)c3ccc4c(c3)C(C)(C)C(=O)N4C)CC2)c1 (centres undefined)	2.6 µM
COc1c2nc3ccccc3oc-2cc(=O)c1OC	> 50 µM (inactive)
CSc1cccc(C(=O)Nc2ccc(-c3nc4ccccc4[nH]3)cc2)c1	5.8 µM
COc1ncccc1CN1CCn2c(Cn3cncn3)cnc2C1C (centres undefined)	> 50 µM (inactive)
Nc1nc(-c2ccc[nH]2)cs1	> 50 µM (inactive)
Cc1ccc2c(=O)c(C(=O)Nc3ccccc3)cn(CC(=O)NC3CCCCC3)c2n1	> 50 µM (inactive)
COc1ccc(CCNC(=O)CCCn2c(SCC(=O)NCc3ccco3)nc3ccccc3c2=O)cc1OC	35.7 µM
O=C(COc1nsnc1N1CCOCC1)Nc1ccc(F)c(F)c1	> 50 µM (inactive)
O=C(c1ccco1)N1CCN=C1SCc1ccccc1F	9.78 µM
CC1(C)CC2CC(C)(CN2Cc2c(O)ccc3ccccc23)C1 (centres undefined)	> 50 µM (inactive)
O=C(CCc1nnc2n(Cc3ccccc3Cl)c(=O)c3ccccc3n12)NCc1ccccn1	23.4 µM
CC1=C(c2ccc(F)cc2)S(=O)(=O)NC1=NCC(=O)Nc1ccc(F)cc1F	41.1 µM
O=C(Nc1ccc(F)cc1F)c1csc(-c2ccccc2)n1	24.4 µM
O=C(Nc1ccc(N2CCOCC2)cc1)c1ccc(-c2ccc(N3CCCC3)nn2)cc1	> 50 µM (inactive)
CCC(=O)Nc1ccccc1-c1nc2ccccc2n(CC(=O)Nc2cc(OC)ccc2OC)c1=O	14 µM
Cc1ccc2cccc(OCc3nnc(SCC(=O)c4ccc(Cl)cc4)n3C)c2n1	4.77 µM
O=C1CC(c2ccco2)Cc2[nH]c(=O)c(-c3nc(-c4ccc(Cl)cc4)cs3)cc21 (centres undefined)	> 50 µM (inactive)
Cc1ccccc1Cc1nc(-c2ccc(=O)[nH]c2)no1	0.946 µM
O=C(/C=C/c1ccc2c(c1)OCO2)Nc1nc2c(s1)COCC2	27.5 µM
CCCC(=O)c1c[nH]c(C(=O)NCc2ccc(F)cc2)c1	18.7 µM
CCC(C(=O)NCc1ccncc1)N(c1cccc(Cl)c1)S(C)(=O)=O (centres undefined)	> 50 µM (inactive)
Cc1ccc(CNC(=O)c2ccc(N3C(=O)[C@@H]4Cc5ccccc5CN4C3=O)cc2)cc1	29.7 µM
